Earlier results on three molecules are cited in paper PMC12326358, “Effect of Quantitative Structural Properties and Drug Formulation in Four Cannabinoids (Cannabidiol, Cannabigerol, Cannabichromene, and Cannabinol) on Their Lymphatic Transport after Enteral Administration in Rats” (Molecular Pharmaceutics, 2025).

The conditions of series [1]: Beagle dogs, formulation with drug dispersed in small lipid droplets; cited from earlier work.
For series [2] the following is noted: cited from earlier work.
For series [3] the following is noted: cited from earlier work; for log P: ref literature.

Turning to `CC(C)(C)c1cc(C(C)(C)C)c(NC(=O)c2c[nH]c3ccccc3c2=O)cc1O` [ivacaftor, reference compound], the bioavailability increase in series [1] is given as 7 fold.

For the molecule `COc1nc(C(Cl)(Cl)Cl)c(Cl)c(OC)c1Cl` [penclomedine], in series [2], the partitioning into lymph entry is reported as “very limited partitioning into lymph”. In addition, in series [3], the “solubility in long-chain triglycerides” value was over 50 mg/g and the “log P” value is over 5.

As to `CCCCCCCCCCC(=O)O[C@H]1CC[C@H]2[C@@H]3CCC4=CC(=O)CC[C@]4(C)[C@H]3CC[C@]12C` [testosterone undecanoate], the FRL in series [2] (drug with prominent first-pass metabolism in the liver, ref literature) is 98.5%. For the same molecule, in series [3], the “log P” value is 6.7.
